Reference: patent publication US11060153B2, “Fluorescence amplification method for forward genetic discovery of factors in human mRNA degradation” (Yale University, priority 2016, dated 2021)

Test system: human NMD
Assay: CRISPR-based forward genetic screen of the GeCKO-LtCRISPR sgRNA library in "green" Fireworks cells (FACS enrichment rounds, deep sequencing of sgRNAs)
Assay type: cell-based
Details: for sgRNA abundance (%): deep sequencing reads for the sgRNA in the enriched cell population / all reads x 100, round 2, "green" Fireworks cells; for sgRNA enrichment (2nd round): reads in the enriched cell population / reads in total cells at the beginning of the 2nd round, measure of increased PTC(+) reporter fluorescence
Method: 1.8×10^8 (6×15 cm plates) “green” Fireworks cells were lentivirally transduced with the blasticidin-resistant GeCKO-LtCRISPR viral library (Shalem et al., Science 2014, 343:84-87) using 4.0 μm/ml of polybrene and propagated for 8-9 days in DMEM media supplemented with 10% FBS and 120 μm/ml hygromycin, 0.3 μg/ml puromycin and 3.0 μm/ml blasticidin. NMD-deficient cell populations (2×10^5 cells) were isolated from 4×10^8 transduced cells using a Bio-Rad S3e cell sorter (100 μm nozzle) and their genomic DNA was phenol-extracted. sgRNAs pools were PCR-amplified using RandomF (5′-[…] AACACCG-3′) (SEQ ID NO: 6) and RandomR (5′-[…] TAAAAC-3′) (SEQ ID NO: 7) primers and Gibson-cloned into the BsmBI-inearized LentiCRISPR (Shalem et al., Science 2014, 343:84-87) vector to obtain a lentiviral library (represented by 1.5×10^8 independent transformants) for the next enrichment round (FIG. 5C). Three rounds of GeCKO Lt-CRISPR library enrichment were conducted; 1.4×10^8 and 1.2×10^8 cells were sorted in the 2nd and 3rd rounds, respectively. sgRNAs obtained from the 2nd round were deep-sequenced and ranked (Table 1) according to their (i) overall abundance in the enriched sgRNA pool and (ii) enrichment over the starting sgRNA population in this round (since successful enrichment increases both of these numbers).
The Fireworks system was tested with the CRIPR-based knockout screening using the lentiviral GeCKO-lentiCRISPR sgRNA library (Shalem et al., Science 2014, 343:84-87), which contains 64,751 sgRNAs targeting 18,080 human genes. Ease of amplification of chromosomally-integrated sgRNAs by PCR allows multiple rounds of sgRNA library enrichment (FIG. 5C) as sgRNAs are iteratively re-transduced into the original Fireworks cell line after the each round of FACS selection in a SELEX-like (Tuerk and Gold, Science 1990, 249:505-510) manner. Fireworks-driven FACS throughput permits completion of one FACS cycle of genome-wide GeCKO library screening with nearly 800-fold library coverage in less than one hour. […] Importantly, sgRNA-specific effects are amplified, whereas cell-specific fluorescence noise is completely reset at the beginning of each sgRNA enrichment round (FIG. 5C), effectively eliminating false-positives arising from spontaneous and lentiviral insertion-induced (and therefore sgRNA-independent) mutations affecting reporters or the NMD pathway. An increase in the population of cells with a defect in NMD becomes evident during FACS rounds 2 and 3 of sgRNA library enrichment, as shown in FIG. 5D for the GeCKO-lentiCRISPR (Shalem et al., Science 2014, 343:84-87) library in the “green” Fireworks cell line. Here, sorting gates were chosen so as to collect no more than 0.16% of the negative cell population.
The pool of sgRNAs isolated from round 2 (FIG. 5C, 5D) of NMD-deficient population enrichment was deep sequenced to determine (i) the overall abundance of each sgRNA in the enriched pool and (ii) the enrichment factor for each surviving sgRNA over the starting sgRNA pool at this round. Here, the sgRNA enrichment factor serves as a measure of the increased fluorescence of the PTC(+) Fireworks reporter achieved by that sgRNA. The top 24 most abundant sgRNAs (of 64,751 sgRNAs originally present in the GeCKO library), which attained enrichment scores higher than 10, are listed in Table 1 along with their intended (Shalem et al., Science 2014, 343:84-87) gene targets.

| Substance | sgRNA abundance (%) | sgRNA enrichment (2nd round) |
| --- | --- | --- |
| 31 (GCGCCCAGCTGCCAACACCA; expressed or natural sequence) [compound 31] | 0.036 | 53.9 |
| 11 (AGGTCCACTCACCATTGGAG; expressed or natural sequence) [compound 11] | 0.888 | 113.9 |
| 19 (CCGTGACATCACAGACCCGT; expressed or natural sequence) [compound 19] | 0.176 | 21.2 |
| 17 (CTATGAGGGGGTCAGTGACA; expressed or natural sequence) [compound 17] | 0.232 | 18.3 |
| 16 (GGATGACCAAGACGACATCA; expressed or natural sequence) [compound 16] | 0.262 | 18.3 |
| 27 (GAAAGACTGAGGAGCTGCTG; expressed or natural sequence) [compound 27] | 0.062 | 38.0 |
| 29 (TAAGTTGTCAGAAAACATGA; expressed or natural sequence) [compound 29] | 0.054 | 17.1 |
| 23 (CTCAACCGATTCCTTAGACG; expressed or natural sequence) [compound 23] | 0.125 | 19.5 |
| 33 (TACCTATGTGCGTCAGCAGC; expressed or natural sequence) [compound 33] | 0.023 | 49.5 |
| 25 (TGCTTTGTGTTTCTTTACAC; expressed or natural sequence) [compound 25] | 0.083 | 17.0 |
| 30 (TCACATCGGCAGCCACCCGT; expressed or natural sequence) [compound 30] | 0.043 | 30.7 |
| 21 (GGTACCTTCACTGGAGCCAC; expressed or natural sequence) [compound 21] | 0.132 | 16.1 |
| 14 (GTTCTCTGATAATCAGAATG; expressed or natural sequence) [compound 14] | 0.439 | 14.7 |
| 18 (TGAGCACATACTCTTCACAC; expressed or natural sequence) [compound 18] | 0.180 | 102.2 |
| 10 (TGATTACGTCCTCCACCTCG; expressed or natural sequence) [compound 10] | 1.081 | 47.0 |
| 20 (CGCATTGAAAACGTTTGCCG; expressed or natural sequence) [compound 20] | 0.153 | 18.4 |
| 28 (TTCAAACTAGTAAGCAACAC; expressed or natural sequence) [compound 28] | 0.054 | 18.4 |
| 13 (AGTGTCCTCCTTAGCTCTGC; expressed or natural sequence) [compound 13] | 0.440 | 33.8 |
| 15 (ACGCACCTGGTTGCTGGTAT; expressed or natural sequence) [compound 15] | 0.265 | 54.7 |
| 24 (TCACGCTTCACGCTGACAGT; expressed or natural sequence) [compound 24] | 0.083 | 80.0 |
| 26 (TTAGCATCAGCTACTGCCAG; expressed or natural sequence) [compound 26] | 0.076 | 14.2 |
| 22 (TATGTCTTACCAGAAGCTGC; expressed or natural sequence) [compound 22] | 0.132 | 23.3 |
| 32 (AGCCCATAATGTACCAGTGC; expressed or natural sequence) [compound 32] | 0.033 | 14.4 |
| 12 (AGTGTCCTCCTTAGCTCTGC; expressed or natural sequence) [compound 12] | 0.872 | 118.7 |
